{"source": "patent US20210308138A1", "about": "“TISSUE TRANSGLUTAMINASE MODULATORS FOR MEDICINAL USE” (Aarhus Universitet, priority 2018, published 2021)", "key": {"purified human TG2": {"target": "T1, purified human TG2 (Homo sapiens, UniProt P21980)", "T1 construct": "purchased Zedira (Darmstadt, Germany); host or cells: insect cells", "T1 sequence (P21980 1-687)": "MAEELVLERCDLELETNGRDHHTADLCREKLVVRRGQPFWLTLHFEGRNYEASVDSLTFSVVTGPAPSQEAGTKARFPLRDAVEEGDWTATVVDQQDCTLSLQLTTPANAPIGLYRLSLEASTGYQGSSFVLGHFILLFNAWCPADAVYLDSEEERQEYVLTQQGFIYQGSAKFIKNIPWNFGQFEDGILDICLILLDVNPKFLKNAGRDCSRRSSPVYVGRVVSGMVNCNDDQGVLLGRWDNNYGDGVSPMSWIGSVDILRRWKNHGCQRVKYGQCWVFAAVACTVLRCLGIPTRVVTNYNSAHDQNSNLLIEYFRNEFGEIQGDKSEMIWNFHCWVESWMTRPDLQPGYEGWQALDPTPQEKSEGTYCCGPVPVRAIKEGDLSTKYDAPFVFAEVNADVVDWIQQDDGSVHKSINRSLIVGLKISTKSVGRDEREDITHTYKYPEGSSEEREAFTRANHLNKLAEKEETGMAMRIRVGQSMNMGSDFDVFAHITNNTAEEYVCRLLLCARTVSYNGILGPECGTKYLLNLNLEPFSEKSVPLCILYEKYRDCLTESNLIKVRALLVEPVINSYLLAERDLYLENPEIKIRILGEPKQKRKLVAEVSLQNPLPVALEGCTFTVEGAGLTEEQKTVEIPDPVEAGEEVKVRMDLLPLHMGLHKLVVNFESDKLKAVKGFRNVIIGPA", "test": "Conformational shift assay by native polyacrylamide gel electrophoresis (native-PAGE)", "type": "biochemical", "conditions": "TG2 2.5 uM; 1 mM LDN-27219, 1 mM GTPNa2, or 0.2 mM Z-DON with CaCl2", "experimental": "For the conformational shift assay using native polyacrylamide gel electrophoresis (native-PAGE) purified and functional human TG2 protein produced in insect cells was obtained from Zedira (Darmstadt, Germany).\nNative gel electrophoresis experiments were performed using a method similar to those previously described (Pinkas D M, et al., PLoS Biol, 2007, 5(12), 2788-2796.) (Iversen R, et al., Proc Natl. Acad. Sci., 2014, 111(43), 17146-17151). Briefly, TG2 (2.5 uM) was incubated for 30 min at room temperature in preincubation buffer (75 mM imidazole, 0.5 mM EDTA, 5 mM DTT [pH 7.2], 10% DMSO) with or without 1 mM GTPNa2 or 1 mM LDN-27219 before adding Native Sample Buffer for Protein Gels (Bio-Rad) or in preincubation buffer with 0.2 mM Z-DON 30 min prior addition of 5 mM of CaCl2 for 20 min. Native buffer was added (dilution 1:2), and 1.5 ug of protein was loaded onto a 4-20% Criterion™ TGX Stain-Free™ gel (Bio-Rad) using Tris-glycine as the running buffer. For 75 min, 125 V was applied at 4° C. The bands were visualized using stain-free technology by exposing the gels to UV light and capturing the image using a PXi 4 Touch image analysis system (Syngene). Band intensity analysis was carried out using GeneTools 4 software (Syngene)."}, "[1]": {"system": "diabetic male BKS(D)-Leprdb/JOrlRj homozygous mice", "test": "Long-term in vivo treatment of diabetic mice, endothelial function as acetylcholine-induced relaxation of small mesenteric arteries", "conditions": "LDN-27219 8 mg/kg/12 h IP for 3 weeks vs candesartan cilexetil 3 mg/kg/24 h in drinking water", "experimental": "For long-term ‘in vivo’ experiments, stocks of LDN-27219 dissolved in PEG-400 were diluted in saline solution containing SBE-b-CD to improve solubility (9 mg/mL NaCl; 15% (w/v) SBE-b-CD) […], resulting in a final concentration of 2.00 mg/mL of LDN-27219 in 10% PEG-400/90%(15% (w/v) SBE-b-CD in saline solution). For the treatment on the drinking water 1 mg/ml Candesartan cilexetil was dissolved in a vehicle of polyethylene glycol 400 (10% v/v), ethanol (5% v/v), cremophor EL (2% v/v), and tap water (83% v/v) and the pH was adjusted to 9.0 with 0.5 mol/L Na2CO3 prior to dilution to the final concentration in tap water, as previously described (Seltzer A., et al., Brain Res., 2004, 1028(1), 9-18). Final concentrations needed to achieve the desired doses of candesartan cilexetil per day were determined by measuring water consumption each 3-4 days.\nFor long-term ‘in vivo’ studies, diabetic homozygous mice were randomly allocated into three groups: 1) treatment with Intraperitoneal (IP) injections of LDN-27219 (8 mg/kg/12 h) and vehicle drinking water [LDN-27219 treatment group], or 2) treatment with IP injections of vehicle (each 12 h) and candesartan cilexetil (3 mg/kg/24 h) in the drinking water [candesartan treatment group], or 3) treatment with IP injections of vehicle (each 12 h) and vehicle drinking water [vehicle treatment group]. […]"}, "[2]": {"system": "small mesenteric arteries", "test": "Direct relaxation of U46619 pre-contracted small mesenteric arteries, concentration-response curves", "design": "species or system Male Wistar rats", "experimental": "The small mesenteric arteries were prepared in the same way is described in example 1.\nThe small mesenteric arteries were pre-contracted with the thromboxane analogue, U46619 (4·10^−7 mol/L) and concentration-response curves for TG2 specific inhibitors, LDN-27219 (10^−8-10^−5 mol/L) and Z-DON (10^−8-3·10^−4 mol/L) were constructed. To study the role of the endothelial pathways in LDN-27219 relaxation, concentration-response curves were constructed for it in arteries whose endothelium had been removed mechanically by rubbing the lumen repeatedly with a human scalp hair."}}}
{"compound": "NNC(=O)CSc1nc2scc(-c3ccccc3)c2c(=O)n1-c1ccccc1", "note": "[LDN-27219]", "values": [{"measurement": "relative abundance of closed / open conformation of TG2", "setting": "purified human TG2", "value": "increase the relative abundance of the closed conformation"}, {"measurement": "prevention of diabetes-related endothelial dysfunction", "setting": "[1]", "value": "able to prevent diabetes-related endothelial dysfunction better than the long-term treatment with angiotensin II receptor antagonist candesartan cilexetil"}, {"measurement": "relaxation of U46619 pre-contracted arteries", "setting": "[2]; U46619 4·10^−7 mol/L, LDN-27219 10^−8-10^−5 mol/L, Z-DON 10^−8-3·10^−4 mol/L, endothelium intact", "value": "induced relaxation"}, {"measurement": "relaxation of U46619 pre-contracted arteries without an endothelium layer", "setting": "[2]; endothelium removed mechanically", "value": "significantly reduced relaxation"}]}
